# Source: patent publication US11597722B2, “Crystal form D of pyrazine-2(1H)-ketone compound and preparation method therefor” (ZHANGZHOU PIEN TZE HUANG PHARMACEUTICAL CO., LTD., priority 2019, dated 2023)
# Test: Pharmacokinetics in mice, single gavage
# Type: in vivo, CD-1 mouse (male)
# Details: CD-1 mouse, 300 mpk, plasma
# Protocol: Experimental purpose: To test the pharmacokinetics of the compound in mice
# CD-1 mouse (male), vehicle (0.5% (w/v) methylcellulose 0.5% (v/v) Tween 80 aqueous solution), trifluoroacetate of compound 0027.
# The vehicle was an aqueous solution of 0.5% (w/v) methylcellulose and 0.5% (v/v) Tween 80, and it was prepared according to the following procedure:
# Formulation of preparations for intragastric administration: […]
# a. An appropriate amount of the test product was weighed and put into a glass bottle;
# b. 70% volume of vehicle (0.5% (w/v) methyl cellulose 0.5% (v/v) Tween 80 aqueous solution) was added;
# c. The preparation was stirred until it was visually homogeneous, and subjected to ultrasound in water bath as needed;
# e. Make up the remaining volume of 0.5% methylcellulose+0.5% Tween 80, and the mixture was stirred until being visually homogeneous.
# Animals in groups 1 and 2 were administrated 5 mg/mL and 30 mg/mL compounds by single gavage, with a dose volume of 10 mL/kg.
# The body weight of the animals was weighed before administration, and the administration volume was calculated based on the body weight.
# Whole blood samples (30 μL) were collected at the prescribed time (0.25, 0.5, 1, 2, 4, 6, 8, 24 h) through saphenous vein blood collection, and the actual blood collection time was recorded in the test record. […]
structure (smiles),measurement,value
COc1cc(OC)c(Cl)c(-c2nc(-c3nc(-c4cn(C)nc4C)cnc3N)cn(C)c2=O)c1,Tlast,24.0 h
